The values below come from patent US20240391931A1 (Bristol-Myers Squibb Company, priority 2021, published 2024).

pEC50, pIC50: −log10 of the molar value. Where only a bound is given, the exact number is not on record here.

One assay deals with T1, HER2 WT (Homo sapiens, UniProt P04626).
T1 construct: purchased ProQinase, Freiburg, Germany ERBB2 0108-0000-1
Description: Enzymatic assay HER2 WT (method a). It is filed as biochemical. Particulars: [HER2 WT]=12.5 nM, [ATP]=25 μM, [Peptide 22]=1 μM. As for the experimental part:
(§1) A 2× stock solution of HER2 WT (ERBB2 0108-0000-1; ProQinase, Freiburg, Germany) corresponding to method a, was prepared as described below. Alternatively, a 2× stock solution of HER2YVMA (custom purification; Viva biotech, Shanghai, China) corresponding to method b, was prepared as described below. For method c, a 2× stock of EGFR (ERBB1 PR7295B, Thermo Fisher, Carlsbad, CA) was prepared as described below. All 2× solutions were prepared in buffer containing 50 mM HEPES, pH 7.5, 10 mM MnCl2, MgCl2, 0.005% Tween 20, 1 mM TCEP. 25 ul of 2× enzyme solution was added to a Seahorse low volume 384-well polypropylene assay plate (201288-100, Seahorse Bioscience, Chicopee, MA) containing 1 μl of compound serially diluted in 50% DMSO. To initiate the reaction, 25 μl of solution containing 2× final concentration of ATP and ProfilerPro Peptide 22 (760366, Perkin Elmer Hopkinton, MA) was added to each well. The reactions were separated on an LC3000 (Caliper Life Sciences) or a LabChip EZReader (Perkin Elmer) in kinetic mode.
(§2) At the conclusion of each assay, the data were exported from the instrument as a .rda file (LC3000) and processed in proprietary software, EZReviewer, which determines the percent of substrate converted to product within a given cycle as (P/P+S)*100 by measuring the amplitude of substrate and product peaks. Cycle time varied with amount of compounds tested between 8 and 12 cycles. Initial velocity (0-3600 s) from each reaction was determined from the slope of a plot of percent conversion at each cycle versus time (seconds). Percent inhibition was determined by dividing the slope of each reaction by the uninhibited control using 100*(1-(x/uninhibited control)). IC50 estimates were obtained by plotting the concentration of inhibitor versus percent inhibition in GraphPad Prism (GraphPad Software, San Diego, CA) using log[inhibitor] versus Response (Variable Slope Model); Y=Min+((Max-Min)/(1+((IC50/x)^Hillslope)))
(§3) • a) [HER2 WT]=12.5 nM, [ATP]=25 μM, [Peptide 22]=1 μM (ATP KMapp˜25 μM) • b) [HER2YVMA]=5 nM, [ATP]=25 μM, [Peptide 22]=1 μM (ATP KMapp˜15 μM) • c) [EGFR WT]=2 nM, [ATP]=1 mM, [Peptide 22]=1 μM (ATP KMapp˜25 μM)

The target of a further assay is HER2YVMA (Homo sapiens, UniProt P04626, INS775YVMA). Description: Enzymatic assay HER2YVMA (method b). In kind it is biochemical. Details: purchased Viva biotech, Shanghai, China custom purification. The following applies: [HER2YVMA]=5 nM, [ATP]=25 μM, [Peptide 22]=1 μM. On the procedure: as §1, §2, §3
Chain of HER2YVMA (P04626 with tags, fused parts or gaps INS775YVMA): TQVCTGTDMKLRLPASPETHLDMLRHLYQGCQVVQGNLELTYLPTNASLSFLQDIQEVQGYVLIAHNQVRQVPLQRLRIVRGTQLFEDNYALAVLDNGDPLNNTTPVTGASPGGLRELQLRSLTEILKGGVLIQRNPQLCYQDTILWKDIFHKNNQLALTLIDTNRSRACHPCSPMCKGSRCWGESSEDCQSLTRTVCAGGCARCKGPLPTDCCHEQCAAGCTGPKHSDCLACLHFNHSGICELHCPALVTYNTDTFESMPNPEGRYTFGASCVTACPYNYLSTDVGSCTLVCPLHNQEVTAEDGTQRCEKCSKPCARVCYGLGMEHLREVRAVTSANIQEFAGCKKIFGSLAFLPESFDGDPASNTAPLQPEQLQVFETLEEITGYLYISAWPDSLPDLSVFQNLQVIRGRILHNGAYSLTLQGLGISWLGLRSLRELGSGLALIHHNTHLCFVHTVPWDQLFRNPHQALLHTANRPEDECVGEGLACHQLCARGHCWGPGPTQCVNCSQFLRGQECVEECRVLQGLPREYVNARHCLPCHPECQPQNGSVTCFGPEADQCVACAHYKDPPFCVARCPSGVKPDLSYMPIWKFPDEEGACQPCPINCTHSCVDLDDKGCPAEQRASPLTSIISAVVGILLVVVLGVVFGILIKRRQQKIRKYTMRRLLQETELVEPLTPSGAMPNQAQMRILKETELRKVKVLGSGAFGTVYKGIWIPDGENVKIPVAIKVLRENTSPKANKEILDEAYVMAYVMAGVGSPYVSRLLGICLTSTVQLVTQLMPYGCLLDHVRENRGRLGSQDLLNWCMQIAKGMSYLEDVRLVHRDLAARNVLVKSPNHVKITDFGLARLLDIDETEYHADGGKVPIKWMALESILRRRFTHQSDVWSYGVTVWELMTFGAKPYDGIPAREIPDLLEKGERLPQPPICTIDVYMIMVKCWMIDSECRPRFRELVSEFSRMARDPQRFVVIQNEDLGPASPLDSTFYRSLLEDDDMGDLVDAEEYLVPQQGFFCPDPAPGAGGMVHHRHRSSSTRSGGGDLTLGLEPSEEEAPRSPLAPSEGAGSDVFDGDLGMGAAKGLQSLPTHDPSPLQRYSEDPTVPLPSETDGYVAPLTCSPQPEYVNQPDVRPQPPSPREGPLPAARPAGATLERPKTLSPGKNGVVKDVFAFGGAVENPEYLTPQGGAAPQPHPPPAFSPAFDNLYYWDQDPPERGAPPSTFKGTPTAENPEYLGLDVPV
The target in a further assay is T2, EGFR WT (Homo sapiens, UniProt P00533).
T2 construct: purchased Thermo Fisher, Carlsbad, CA ERBB1 PR7295B
T2 sequence (P00533 25-1210): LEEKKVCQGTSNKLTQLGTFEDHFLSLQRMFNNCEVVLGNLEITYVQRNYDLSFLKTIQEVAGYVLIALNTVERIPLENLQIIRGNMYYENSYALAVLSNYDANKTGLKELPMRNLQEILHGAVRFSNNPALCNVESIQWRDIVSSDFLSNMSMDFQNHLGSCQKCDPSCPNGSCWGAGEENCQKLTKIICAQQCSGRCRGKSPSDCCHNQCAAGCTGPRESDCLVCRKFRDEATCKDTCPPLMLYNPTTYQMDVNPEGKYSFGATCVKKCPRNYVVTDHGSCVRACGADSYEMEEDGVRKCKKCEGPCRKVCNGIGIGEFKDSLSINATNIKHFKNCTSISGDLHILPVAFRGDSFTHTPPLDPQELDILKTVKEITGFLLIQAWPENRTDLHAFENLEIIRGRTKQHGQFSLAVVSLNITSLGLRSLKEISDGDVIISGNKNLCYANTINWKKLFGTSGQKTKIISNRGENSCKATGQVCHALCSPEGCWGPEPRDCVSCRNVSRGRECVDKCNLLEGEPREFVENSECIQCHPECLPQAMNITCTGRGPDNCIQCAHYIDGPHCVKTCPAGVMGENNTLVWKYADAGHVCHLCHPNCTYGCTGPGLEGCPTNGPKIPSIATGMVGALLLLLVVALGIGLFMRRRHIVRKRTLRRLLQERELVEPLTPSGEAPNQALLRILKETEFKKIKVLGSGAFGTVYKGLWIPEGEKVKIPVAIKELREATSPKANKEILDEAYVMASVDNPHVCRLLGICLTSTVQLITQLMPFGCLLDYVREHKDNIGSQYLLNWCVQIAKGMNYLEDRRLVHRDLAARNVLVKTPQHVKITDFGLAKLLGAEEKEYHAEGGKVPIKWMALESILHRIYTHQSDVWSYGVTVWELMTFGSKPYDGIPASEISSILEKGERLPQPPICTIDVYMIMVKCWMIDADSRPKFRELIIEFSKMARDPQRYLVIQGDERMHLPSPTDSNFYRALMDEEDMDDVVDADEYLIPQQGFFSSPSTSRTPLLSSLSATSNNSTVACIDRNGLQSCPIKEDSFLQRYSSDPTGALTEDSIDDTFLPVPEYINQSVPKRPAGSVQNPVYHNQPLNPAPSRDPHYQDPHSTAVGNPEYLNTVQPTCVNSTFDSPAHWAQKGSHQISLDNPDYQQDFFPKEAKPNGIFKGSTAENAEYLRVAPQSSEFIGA
Description: Enzymatic assay EGFR WT (method c). It is filed as biochemical. Particulars: [EGFR WT]=2 nM, [ATP]=1 mM, [Peptide 22]=1 μM. As for the experimental part: as §1, §2, §3

The next assay deals with EGFR (Homo sapiens, UniProt P00533). Description: EGFR signaling (pEGFR Tyr1068/total EGFR MSD) in A431 cells. It is filed as cell-based. Details: endogenous in cells; host or cells: A431, N87. Particulars: for pEC50: A431 cells, read-out: A431 pEGFR EC50; for Selectivity A431 EC50/BT474 EC50: ratio A431 pEGFR EC50 to BT474 pHER2 EC50. As for the experimental part: (§4) In addition to the engineered cell lines, the following cell lines were used: BT474 (human breast carcinoma), N87 (human gastric carcinoma), NCI-H1781 (human lung adenocarcinoma), and A431 (human epidermoid carcinoma); all cell lines were obtained from the American Type Culture Collection (ATCC, Manassas, VA). NCI-H1781 were grown in complete RPMI 1640 (Life Technologies, Carlsbad, CA) supplemented with 15% fetal bovine serum (FBS, Life Technologies, Carlsbad, CA) and 1% Penicillin-Streptomycin (P/S, Life Technologies, Carlsbad, CA). N87 cells were grown in complete RPMI 1640 supplemented with 10% FBS and 1% P/S. BT474 and A431 cells were grown in DMEM (Life Technologies, Carlsbad, CA) supplemented with 10% FBS and 1% P/S. All cells were maintained and propagated in a humidified 5% CO2 incubator at 37° C.
Chain of EGFR (P00533 25-1210): as above
A431 Cells were plated in 96-well tissue-culture treated plates in full media for 6 h, then starved with media containing 0.1% FBS for overnight. Media was replaced with low serum media (1% FBS) containing compound at 10, 3.3, 1.1, 0.37, 0.12, 0.041, 0.014, 0.005 μM or DMSO control (0.1%). Cells were incubated for 1.5 hr, then stimulated with 100 ng/mL human EGF (PeproTech, Rocky Hill, NJ) for 10 minutes. Cells were washed with cold PBS, and lysed for 30 min on ice in complete MSD lysis buffer (prepared as described in HER2 Signaling Method); lysates were stored at −70° C. until further analysis. EGFR signaling was evaluated using phospho (Tyr 1068)/total EGFR whole cell lysate kit (Meso-Scale Discovery, Gaithersburg, MD). The phospho EGFR signal was normalized to total EGFR for each sample; results are reported as % DMSO control. The normalized data was fitted using a sigmoidal curve analysis program (Graph Pad Prism version 6) with variable Hill slope to determine EC50 values. The results are provided in Table 4, under column titled “A431-pEGFR EC50”.

For assay [1], the target named is T3, HER2 wildtype (WT) protein (Homo sapiens, UniProt P04626).
T3 construct: BT474 and N87 cell lines which endogenously overexpress the HER2 wildtype (WT) protein; endogenous in cells; host or cells: BT474, N87
The assay is described as follows: HER2 signaling (pHER2 Tyr1248/total HER2 MSD) in BT474 cells. It is filed as cell-based. The following applies: 1.5 hr compound, 1% FBS. On the procedure:
as §4
HER2 signaling was assessed in BT474 and N87 cell lines which endogenously overexpress the HER2 wildtype (WT) protein, in NCI-H1781 cells which endogenously expresses a HER2 mutant protein containing a VC insertion in the kinase domain (HER2VC or G776delinsVC), and in engineered cell lines transduced to express the Her2 mutant protein containing the YVMA insertion (Hek293-HER2YVMA and BEAS2B-HER2YVMA).
BT474, N87, and NCI-H1781 were plated in 96-well tissue-culture treated plates (Corning Costar, Sigma-Aldrich) in full media and incubated overnight. Hek293-HER2YVMA and BEAS2B-HER2YVMA cells were plated in 96-well poly-D-lysine treated plates (BD Bioscience, San Jose, CA). For treatment with test compounds, the media was replaced with corresponding low serum media (1% FBS) containing test compound at 1.1, 0.37, 0.12, 0.041, 0.014, 0.005, 0.0014, 0.0005 μM or DMSO control (0.1%). Cells were incubated with compound for 1.5 hr at 37° C. After compound treatment, the media was removed and cells were lysed for 30 min on ice in complete MSD lysis buffer (prepared using MSD base lysis buffer (Meso-Scale Discovery) supplemented with cOmplete, EDTA-free Protease inhibitor cocktail (Roche), Phosphatase Inhibitor Cocktails 2 and 3 (Sigma-Aldrich), and 1 mM PMSF (Sigma-Aldrich)). Lysates were stored at −70° C. until further analysis.
HER2 signaling was evaluated using phospho (Tyr1248)/total ErbB2 whole cell lysate MSD plates (Meso-Scale Discovery, Gaithersburg, MD). The phospho HER2 signal was normalized to total HER2 for each sample; results are reported as % DMSO control. The normalized data was fitted using a sigmoidal curve analysis program (Graph Pad Prism version 6) with variable Hill slope to determine EC50 values.
The HER2 signaling results are provided in Table 4, under columns titled “BT474-pHER2 EC50”, “N87-pHER2 EC50”, and “NCI-H1781-pHER2 EC50”. Hek293-HER2YVMA ins fall under the heading “HEKYVMA-pHER2 EC50”, Ba/F3 HER2YVMA fall under the heading “Ba/F3 YVMA-pHER2 EC50” and BEAS2B-HER2YVMA fall under the heading “BEAS2B YVMA-pHER2 EC50”.

T1 sequence (P04626 23-1255): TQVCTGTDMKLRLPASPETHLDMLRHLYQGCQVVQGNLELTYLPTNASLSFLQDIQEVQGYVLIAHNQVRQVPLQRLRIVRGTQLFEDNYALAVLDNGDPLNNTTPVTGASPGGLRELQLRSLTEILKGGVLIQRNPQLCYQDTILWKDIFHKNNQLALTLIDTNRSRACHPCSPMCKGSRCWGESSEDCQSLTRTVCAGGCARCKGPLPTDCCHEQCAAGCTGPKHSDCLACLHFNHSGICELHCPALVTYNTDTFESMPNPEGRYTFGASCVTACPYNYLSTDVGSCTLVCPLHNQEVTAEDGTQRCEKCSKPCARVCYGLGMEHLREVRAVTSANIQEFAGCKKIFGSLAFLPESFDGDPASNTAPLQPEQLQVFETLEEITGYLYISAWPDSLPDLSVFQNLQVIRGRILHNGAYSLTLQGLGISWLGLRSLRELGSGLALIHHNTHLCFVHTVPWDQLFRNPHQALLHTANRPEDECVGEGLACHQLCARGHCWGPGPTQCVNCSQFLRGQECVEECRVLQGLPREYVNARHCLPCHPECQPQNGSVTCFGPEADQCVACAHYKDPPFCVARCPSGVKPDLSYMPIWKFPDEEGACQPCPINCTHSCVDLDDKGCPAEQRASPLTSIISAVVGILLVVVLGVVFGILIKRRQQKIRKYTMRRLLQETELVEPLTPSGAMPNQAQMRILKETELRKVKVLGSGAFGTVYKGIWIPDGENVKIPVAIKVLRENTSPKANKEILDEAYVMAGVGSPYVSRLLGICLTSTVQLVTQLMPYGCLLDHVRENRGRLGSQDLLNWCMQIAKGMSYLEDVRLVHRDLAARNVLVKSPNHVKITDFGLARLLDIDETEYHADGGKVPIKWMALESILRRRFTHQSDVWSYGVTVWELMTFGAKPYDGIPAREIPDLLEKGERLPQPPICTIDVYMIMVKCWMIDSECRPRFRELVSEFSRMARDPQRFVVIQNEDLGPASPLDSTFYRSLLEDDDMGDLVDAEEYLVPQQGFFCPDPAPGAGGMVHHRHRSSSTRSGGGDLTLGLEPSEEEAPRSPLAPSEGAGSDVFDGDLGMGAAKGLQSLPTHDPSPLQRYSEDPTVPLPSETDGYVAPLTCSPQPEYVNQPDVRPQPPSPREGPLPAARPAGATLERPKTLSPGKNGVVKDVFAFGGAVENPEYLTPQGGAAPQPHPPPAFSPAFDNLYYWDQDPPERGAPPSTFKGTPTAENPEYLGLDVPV

`Cc1ccc(Oc2ccc(Nc3ncnc4sc5c(c34)CCN(C(=O)/C=C/CN3CCOC(C)(C)C3)C5)cc2C)cn1` [Compound 28]: the pIC50 is greater than 7.00 against HER2 WT, 6.00 to 7.00 at HER2YVMA and less than 5.00 on EGFR WT. Besides, the pEC50 (at EGFR; in assay [1]) was greater than 7.00 in each case. Moreover, the “Selectivity A431 EC50/BT474 EC50” value at EGFR is “C (C: ≥ 10 and < 20)”.

Regarding `Cc1ccc(Oc2ccc(Nc3ncnc4sc5c(c34)CCN(C(=O)/C=C/CN3CC4CC(C4)C3)C5)cc2C)cn1` [Compound 36], the pIC50 is greater than 7.00 at HER2 WT, greater than 7.00 on HER2YVMA and 5.00 to 6.00 against EGFR WT. In addition, the pEC50 (at EGFR; in assay [1]) was greater than 7.00 throughout. For the same compound, the “Selectivity A431 EC50/BT474 EC50” value at EGFR is “D (D: ≥ 5 and < 10)”.

In the case of `Cc1ccc(Oc2ccc(Nc3ncnc4sc5c(c34)CCN(C(=O)/C=C/CN3CCOC4(CCC4)C3)C5)cc2C)cn1` [Compound 30], the pIC50 on HER2 WT is greater than 7.00; at HER2YVMA it was 6.00 to 7.00; against EGFR WT, less than 5.00. The figures for the pEC50 (at EGFR; in assay [1]) were 6.00 to 7.00 and greater than 7.00, respectively. At EGFR, the “Selectivity A431 EC50/BT474 EC50” value is given as “A (A: ≥100)”.

With `Cc1ccc(Oc2ccc(Nc3ncnc4sc5c(c34)CCN(C(=O)/C=C/CN3CCOCC3(C)C)C5)cc2C)cn1` [Compound 29], the pIC50 on HER2 WT is greater than 7.00; at HER2YVMA, greater than 7.00; on EGFR WT, less than 5.00. Also, the pEC50 (on EGFR; in assay [1]) was greater than 7.00 each time. Further, the “Selectivity A431 EC50/BT474 EC50” value at EGFR was “C (C: ≥ 10 and < 20)”.

As for `C=CC(=O)N1CCc2c(sc3ncnc(Nc4ccc(Oc5ccc6ncnn6c5)c(C)c4)c23)C1` [Compound 2, 1-(4-((4-([1,2,4]triazolo[1,5-a]pyridin-6-yloxy)-3-methylphenyl)amino)-5,8-dihydropyrido[4′,3′:4,5]thieno[2,3-d]pyrimidin-7(6H)-yl)prop-2-en-1-one], the pIC50 at HER2 WT was greater than 7.00; against HER2YVMA it was greater than 7.00; against EGFR WT it was 5.00 to 6.00.

As to `Cc1ccc(Oc2ccc(Nc3ncnc4sc5c(c34)CCN(C(=O)/C=C/CN3CCN4CCC3CC4)C5)cc2C)cn1` [Compound 116], the negative logarithm of the IC50 (pIC50) is 5.00 to 6.00 against HER2 WT, 5.00 to 6.00 on HER2YVMA and less than 5.00 on EGFR WT.

Take `Cc1cc(Nc2ncnc3sc4c(c23)CCN(C(=O)/C=C/CN2CCOC[C@@H]2C)C4)ccc1Oc1ccc2ncnn2c1` [Compound 79]: the figures for the pIC50 against HER2 WT, at HER2YVMA and against EGFR WT were 6.00 to 7.00, 6.00 to 7.00 and less than 5.00, respectively.

For `Cc1ccc(Oc2ccc(Nc3ncnc4sc5c(c34)CCN(C(=O)/C=C/CN3CCOCC34CCC4)C5)cc2C)cn1` [Compound 31], the values for the negative-log IC50 (pIC50) against HER2 WT, on HER2YVMA and at EGFR WT were greater than 7.00, 6.00 to 7.00 and less than 5.00, respectively. Besides, the pEC50 on EGFR is 6.00 to 7.00; in assay [1], greater than 7.00. For the same compound, the “Selectivity A431 EC50/BT474 EC50” value at EGFR was “D (D: ≥ 5 and < 10)”.

Turning to `Cc1ccc(Oc2ccc(Nc3ncnc4sc5c(c34)CCN(C(=O)/C=C/CN3CC4CCC(C4)C3)C5)cc2C)cn1` [Compound 27], at EGFR WT, the pIC50 was 5.00 to 6.00. Besides, at EGFR, the pEC50 was greater than 7.00; the “Selectivity A431 EC50/BT474 EC50” value is “B (B: ≥ 20 and < 100)”.

As for `C[C@H]1COCCN1C/C=C/C(=O)N1CCc2c(sc3ncnc(Nc4ccc(Oc5ccc6ncnn6c5)c(Cl)c4)c23)C1` [Compound 90], the negative-log IC50 (pIC50) on HER2 WT is 6.00 to 7.00; against HER2YVMA, 6.00 to 7.00; on EGFR WT, less than 5.00.

With `Cc1ccc(Oc2ccc(Nc3ncnc4sc5c(c34)CCN(C(=O)/C=C/CN3CCOC[C@@H]3C)C5)cc2C)cn1` [Compound 32], the negative logarithm of the IC50 (pIC50) on HER2 WT was greater than 7.00; against HER2YVMA, 6.00 to 7.00; against EGFR WT, less than 5.00. For the same compound, the pEC50 was 6.00 to 7.00 on EGFR and greater than 7.00 in assay [1]. Besides, the “Selectivity A431 EC50/BT474 EC50” value at EGFR was “B (B: ≥ 20 and < 100)”.
